According to PMC12040169 (PLOS Biology, 2025):

assay: in vitro; conditions: human, hela cells, % viability

Structure (SMILES)	viability at 28.5 h, 10 µM
O=C(c1ccccc1)n1cc(-c2ccccn2)c(N2CCOCC2)n1 [CBK021010]	100%
Cc1nn(C2CCCO2)c(=O)nc1N (centres unmarked) [CBK021028]	101%
N/C(=N/c1ccccn1)C(F)(F)F [CBK021049]	90.1%
Cn1c(=O)n(C)c2cc(NC(=O)C(F)(F)F)ccc21 [CBK021127]	80.9%
O=C(O)C(Cc1ccccc1)n1cnnn1 (centres unmarked) [CBK021162]	109%
O=C1N(Cc2ccc(Br)cc2)CCc2cncn21 [CBK021187]	79.7%
COc1cc(OC)c(CN(C)CCN(C)C)cc1Br [CBK021255]	88.6%
O=C(Cc1ccccc1)N/N=C/c1nnco1 [CBK021274]	121%
CC(C)(C)S(=O)(=O)CC(N)=S [CBK021304]	91.1%
CN(CCc1ccccn1)Cc1cc(Br)cs1 [CBK021314]	92.8%
COC(=O)c1ccccc1S(=O)(=O)Nc1nnn[nH]1 [CBK021321]	97.8%
CC1CC(=O)C2C=C(c3ccc(Br)cc3)NN=C2C1 (centres unmarked) [CBK021352]	91.8%
Clc1ccc(CSCCn2cccc2)cc1 [CBK021366]	92%
Nc1nnc(CSc2cccc3cccnc23)o1 [CBK021397]	108%
N#Cc1nc(=O)[nH]cc1N [CBK021411]	90.8%
C1=CC2N=C(SCc3ccccc3)OC2C=C1 (centres unmarked) [CBK021412]	92.6%
Cc1csc(NS(=O)(=O)CC(C)C)n1 [CBK021434]	89.1%
COc1ccccc1C1OC(=O)C[C@@H]1C(=O)Nc1cc(C(C)(C)C)on1 (some centres unmarked) [CBK021439]	110%
CC(C)=NNC(=N)Nc1ccccc1 [CBK021452]	90.4%
CCSC(C)CC1C/C(=N/O)c2c(C)noc2C1 (centres unmarked) [CBK021455]	88.4%
Brc1ccc(CN2CCN3CCCC3C2C2CCCCC2)o1 (centres unmarked) [CBK021456]	82.6%
CN(C)c1oc(-c2ccccc2)nc1S(=O)(=O)c1ccccc1 [CBK021477]	105%
O=C(Cc1ccccc1)N/N=C/C1CC2CC1CC2C(F)(F)F (centres unmarked) [CBK021488]	93%
O=C(O)c1snnc1-c1ccccc1 [CBK021545]	90.9%
O=S1(=O)CCC(Sc2nncc3ccccc23)C1 (centres unmarked) [CBK021586]	92.2%

Structure (SMILES)	viability at 28.5 h, 10 µM
CC1=NNC(=S)NC(C)(C)C1 [CBK021597]	120%
Cc1c(C#N)c(=O)ncn1Cc1ccncc1 [CBK021603]	102%
O=C(C/C=N/OCc1ccccc1)c1sccc1Cl [CBK021611]	96%
O=C1N(C2CCCCC2)CC2C(c3ccccc3)ONC12O (centres unmarked) [CBK021700]	97%
c1ccc(SCCCSc2ccccn2)cc1 [CBK021704]	87%
CCCCCSc1c(C#N)nc(N2CCOCC2)c2c1CC(C)(C)OC2 [CBK021748]	92.1%
OC1CCN(c2ccc(-c3ccccc3)nn2)CC1 [CBK021753]	83.9%
O=C(c1ccccc1)n1c(=S)nc2n(c1=S)CCN2 [CBK021794]	84.3%
O=C1CC(C(=O)O)CN(c2cccs2)C1 (centres unmarked) [CBK021796]	92.8%
NC1(C(F)(F)F)Oc2cc(Cl)c(Cl)cc2O1 [CBK021805]	88.5%
O=C(O)c1ccc2c(c1)C(=O)N(C1=NCCS1)C2=O [CBK021809]	89.6%
CSc1nc(C#N)c(N)c(SC2C=CCCC2)n1 (centres unmarked) [CBK021817]	89.4%
c1cn(CC2(Cn3ccnc3)COC2)cn1 [CBK021839]	108%
CC(=O)Nc1ccc(/C(C)=N/Nc2nc(N3CCCC3)nc(N3CCCC3)n2)cc1 [CBK021877]	89.3%
CC(=O)O/C(N)=N/c1nonc1N [CBK021885]	105%
c1csc(C2NN=C3C4CCN(CC4)C32)c1 (centres unmarked) [CBK021915]	91.5%
COC(=O)c1sccc1N1C(=O)CSCC1=O [CBK021934]	103%
CNC(=O)C(NC(=S)NC(=O)c1ccc(F)cc1)C(C)(C)C (centres unmarked) [CBK021945]	109%
C/C(=N\Nc1cccc2cccnc12)C(C)(C)C [CBK021957]	113%
CCSc1nn(CC)c2oc3c(c2c1=S)CC(C)(C)OC3 [CBK021960]	105%
CC1(C)[C@H]2CC[C@]1(C)[C@@H](OCCNc1ccccc1)C2 [CBK021967]	87.8%
FC(F)(F)c1ccc(-c2nnc(C3CC3)o2)cc1 [CBK021992]	86.7%
O=S(=O)(CCOc1ccccc1)N(CCOc1ccccc1)C1CCCCC1 [CBK022003]	103%
CC(=O)c1cc(CCCO)n(Cc2ccco2)c1C [CBK022013]	115%
S=c1[nH]nc(Cn2ccc(-c3ccccc3)n2)o1 [CBK022019]	108%

Structure (SMILES)	viability at 28.5 h, 10 µM
COCCNc1cccc(Cn2c(=O)n(C)c3c2c(=O)nc(OC)n3C)c1 [CBK022052]	84.3%
Nc1ncccc1OCCOc1cccnc1N [CBK022067]	89.3%
CCCCN(CCCC)S(=O)(=O)c1nc2nc(C)cc(C)n2n1 [CBK022076]	79.7%
CSc1nc2ncnc(N3CCC(O)CC3)c2s1 [CBK022082]	84.4%
CC(=O)c1nnnn1C(C)(C)Cc1ccccc1 [CBK022088]	91.3%
CCCC(=O)CCOC(=O)C1=C(C)OC2C1Nc1cc(F)c(F)cc1N2CC (centres unmarked) [CBK022099]	93.4%
O=C(N/N=C/c1ccc[nH]1)C1CC1c1ccccc1 (centres unmarked) [CBK022120]	98.8%
CCOC(=O)c1cnc(O/N=C(\N)c2ccc(C(C)(C)C)cc2)nc1C(F)(F)F [CBK022142]	103%
Cc1nc(NC(CC(C)C)C(=O)O)c2nc(C)oc2n1 (centres unmarked) [CBK022157]	115%
Cc1ccc(CCP(=O)(O)CN2CCOCC2)cn1 [CBK022176]	109%
Cc1cccc(NC(=S)N/N=C/c2sccc2C)c1 [CBK022228]	104%
C/C(=N\NC(=O)CC1(C)OCCO1)c1oc(C)cc1C [CBK022234]	99.1%
CC(Oc1cccc(Cl)c1)n1cnnc1 (centres unmarked) [CBK022246]	100%
Cc1nn(Cc2cccc(C(N)=O)c2)c(C)c1Br [CBK022255]	86.9%
CCOc1oc2cc(O)ccc2c1C(=O)CSC1CCCCC1 [CBK022262]	87.1%
COc1cccc(C(=O)NCC(C)(C)SCc2ccc(F)cc2)c1 [CBK022322]	111%
Brc1n[nH]c2nc(NCc3ccco3)ncc12 [CBK022327]	91.6%
Cc1ccc2oc(=O)cc(N/N=C(\Cl)C(N)=S)c2c1 [CBK022357]	85.8%
O=C(CC1(C(F)(F)F)NCCN1)c1ccco1 [CBK022373]	82.6%
CCOC(=O)CN/C(=N/O)c1c(Cl)cccc1Cl [CBK022374]	99.6%
CN(C)S(=O)(=O)NCCc1ccc(S(N)(=O)=O)cc1 [CBK022388]	99.5%
Cc1ccc2c(c1)C(C)(c1ccccc1)CC(C)(C)N2C(=O)CSc1nncn1C (centres unmarked) [CBK022397]	98.8%
COc1ccc2ccccc2c1[S+]([O-])NC1CCCCC1 (centres unmarked) [CBK022400]	80.7%
C=CCn1c(SCC(=O)Nc2ccccn2)nnc1-c1ccc(Br)cc1 [CBK022413]	96.3%
COc1cccc(C(=O)Nc2ccc(Br)cc2C(=O)O)c1 [CBK022487]	98.7%

Structure (SMILES)	viability at 28.5 h, 10 µM
CS(=O)(=O)N1CC2(CCN(C(=O)[C@@H]3CNC[C@H]3c3ccccc3)CC2)c2ccccc21 [CBK022572]	104%
c1ccc(OCCOc2ccc(N3CCNCC3)nn2)cc1 [CBK022577F]	109%
c1ccc2c(c1)NCC21CCNCC1 [CBK022583]	101%
O=C1OC[C@@H](c2ccccc2)N1C(=O)[C@@H]1CN(Cc2ccccc2)C[C@H]1c1cc2ccccc2o1 [CBK022599C]	111%
CN(C)c1ccccc1C1(O)CN2CCC1CC2 (centres unmarked) [CBK022620]	86.8%
CC(C)CN1CC2(CCN(C(=O)OCc3ccccc3)CC2)c2ccccc21 [CBK022626C]	106%
O=C(OCc1ccccc1)N1CCC2(CC1)CN(CCO)c1ccccc12 [CBK022627]	105%
CCN(CC)C(=O)c1ccc(N)cc1C [CBK022686C]	93.5%
CC1=CC(=O)OC1(O)c1ccc(Br)cc1 (centres unmarked) [CBK022687]	91.6%
O=C(O)C(CCCN1CCCC1)(c1ccccc1)c1ccccc1 [CBK022695G]	81.7%
C[N+]1(CC(=O)c2ccccc2)C2CCC1CC(OC(=O)C(O)c1ccccc1)C2 (centres unmarked) [CBK022712C]	120%
CCCC/N=C(\NS(=O)(=O)c1ccc(C)cc1)OCC [CBK022731]	106%
NC(=O)N/N=C/COc1cccc(C(F)(F)F)c1 [CBK022736]	102%
CCN(CC)CCOc1cc(=O)oc2ccccc12 [CBK022747C]	105%
Cc1ccnc(Nc2nc3ccccc3o2)n1 [CBK022772]	87.5%
CO/N=C\c1c(CO)cnc(C)c1O [CBK022776]	98.4%
CCN(CC)C(=O)C1CN2CCc3cc(OC)c(OC)cc3C2CC1OC(C)=O (centres unmarked) [CBK022778]	110%
OC(c1ccc2c(c1)OCO2)C1CCCCC1N1CCCCCC1 (centres unmarked) [CBK022779C]	100%
CCOC(=O)N1CCN(CC2CCCCN2)CC1 (centres unmarked) [CBK022780G]	83.4%
COC(=O)C(C)CN1CC2CCC(CC2)C1 (centres unmarked) [CBK022785C]	106%
COc1ccc(Nc2cc(Cl)ccc2C(=O)O)cn1 [CBK022801]	91.5%
Cc1cc(=[N+]2CCCCC2)cc(C)o1 [CBK022824I]	96.7%
CC(C)(C)CC(C)(C)Nc1nc(N)nc(N)n1 [CBK022832]	101%
NC(=O)CC[n+]1ccc2ccccc2c1 [CBK022857C]	110%

same assay, conditions: human, hela cells, % viability, bulk resorufin, single well

Structure (SMILES)	viability at 28.5 h, 10 µM
CC1=CC(C)C(COC(N)=O)(COC(N)=O)C(C)C1 (centres unmarked) [CBK020974]	93.7%
Clc1cncc(N2CCNCC2)c1 [CBK022556F]	117%
